# Results taken from the NIST ThermoML archive (doi:10.1021/je020154p).
# ± gives the expanded uncertainty stated by the source.
# Conditions: Liquid
vapor or sublimation pressure (268.15 K) [kPa],vapor or sublimation pressure (278.15 K) [kPa],vapor or sublimation pressure (283.15 K) [kPa],vapor or sublimation pressure (288.15 K) [kPa],vapor or sublimation pressure (298.15 K) [kPa],vapor or sublimation pressure (308.15 K) [kPa],vapor or sublimation pressure (318.15 K) [kPa],Compound
407.9 ± 1.5,549.4 ± 1.8,636.4 ± 2,735 ± 2.2,954.8 ± 2.7,1213 ± 3.3,1530.8 ± 4.1,CCC [propane]
695.4 ± 2.1,952 ± 2.6,1102.2 ± 3,1281.2 ± 3.4,1685.6 ± 4.5,2185.2 ± 5.7,2794.8 ± 7.2,FCF [difluoromethane]
